This is an account of results in patent US11274214B2, “Composition of water based coating with a low content of volatile organic compounds and high resistance to dirt handle, and, use of water based coating” (OXITENO S.A. INDÚSTRIA E COMÉRCIO, priority 2017, dated 2022).

The nature of data set [1]: Estimated Hansen solubility parameters and octanol/water partition coefficient of coalescents. The source says:
In order to perform the comparative tests, two commercially available products, Texanol™ and OPTIFILM 300™, were used.

Data set [2] can be described thus: Physical and chemical properties of isopentyl succinate.

In the case of isopentyl succinate, in data set [1], the “Solubility in water (suggested by octanol/water partition coefficients)” value is “low solubility in water”. In data set [2], this substance registered a Density of 0.966 g/mL, a Freezing point of −25 °C and a Relative evaporation rate of 0.029. In addition, the “Volatile content according to method 24” value in data set [2] (method 24) turned out to be 50%.
